US20250276965A1, “PROCESS FOR THE PREPARATION OF ANTIBACTERIAL COMPOUNDS” (DISCUVA LIMITED, priority 2021, published 2025)

Legend:
[1] = tested on: Klebsiella pneumoniae ATCC 43816; experiment: Proof-of-concept murine respiratory infection model, IV bolus; format: in vivo; conditions: CD-1 mice, 20 mg/kg IV bolus TID, 26 h
Protocol: Compound (I) and comparative compound (III) were evaluated in proof-of-concept studies in murine models for the treatment of a respiratory infection with Gram-negative bacteria of the order Enterobacterales, a bacteraemia or bloodstream infection with Gram-negative bacteria of the order Enterobacterales, and a urinary tract infection with Gram-negative bacteria of the order Enterobacterales. Each dot, triangle or square indicator represents a single mouse. LOD refers to the limit of detection of the bacteria. […] Each of the proof-of-concept studies was carried out separately. By vehicle is meant pharmaceutically acceptable carrier or excipient. For the proof-of-concept study for the treatment of a respiratory infection caused or exacerbated by Gram-negative bacteria of the order Enterobacterales, CD-1 mice were infected with Klebsiella pneumoniae ATCC 43816. Two hours after infection (‘pre-treatment’ in FIG. 2), a vehicle (20% hydroxypropyl β cyclodextrin) containing no compound (I) or comparative compound (III), or a vehicle (20% hydroxypropyl β cyclodextrin) containing compound (I) or comparative compound (III), was administered by IV bolus at 20 mg/kg, TID (8 hrs apart), over one day.

[2] = tested on: E. coli BAA-2469 (NDM-1 positive); experiment: Proof-of-concept murine bacteraemia or bloodstream infection model, IV bolus; format: in vivo; conditions: CD-1 mice, single dose IV bolus 20 mg/kg
Protocol: Compound (I) and comparative compound (III) were evaluated in proof-of-concept studies in murine models for the treatment of a respiratory infection with Gram-negative bacteria of the order Enterobacterales, a bacteraemia or bloodstream infection with Gram-negative bacteria of the order Enterobacterales, and a urinary tract infection with Gram-negative bacteria of the order Enterobacterales. Each dot, triangle or square indicator represents a single mouse. LOD refers to the limit of detection of the bacteria. […] Each of the proof-of-concept studies was carried out separately. By vehicle is meant pharmaceutically acceptable carrier or excipient.
For the proof-of-concept study for the treatment of a bacteraemia or bloodstream infection with Gram-negative bacteria of the order Enterobacterales, CD-1 mice were infected with human urine isolate E. coli BAA-2469 (NDM-1 positive). One hour after infection (‘pre-treatment’ in FIG. 3), a vehicle (20% hydroxypropyl β cyclodextrin) containing no compound (I) or comparative compound (III), or a vehicle (20% hydroxypropyl β cyclodextrin) containing compound (I) or comparative compound (III), was administered by as a single dose IV bolus at 20 mg/kg.

[3] = tested on: Escherichia coli (100 isolates); experiment: MIC90 by broth microdilution (EUCAST), 100 isolates of Escherichia coli; format: cell-based; conditions: test concentrations 0.03-64 μg/mL
Protocol: (§1) Minimum Inhibitory Concentration (MIC90) versus 100 isolates of Escherichia coli and Klebsiella pneumonia were determined. The Minimum Inhibitory Concentration at which 90% of the isolates (strains) are inhibited (MIC90) were measured by broth microdilution in line with EUCAST susceptibility testing standards (www.eucast.org). Bacterial inocula were prepared at ca 1×10^6 CFU/mL by diluting 100-fold a 0.5 McFarland suspension. Antibacterial panels containing 50 μl of antibacterial solutions at 2×the final concentrations were diluted 2-fold with 50 μl of inoculum to give a final inoculum of ca 5×10^5 CFU/ml and desired test concentrations of antibacterial agents (0.03-64 μg/mL). The plates were incubated according to the guidelines of the Clinical and Laboratory Standards Institute (Clinical and Laboratory Standards Institute. Methods for Dilution Antimicrobial Susceptibility Tests for Bacteria That Grow Aerobically; Approved Standard-Eleventh Edition, CLSI document […], 11 Jan. 2018). The MIC90 (μg/ml) is the MIC value at which greater than or equal to 90% of the isolates (strains) within a test population are inhibited.

[4] = tested on: Klebsiella pneumonia (100 isolates); experiment: MIC90 by broth microdilution (EUCAST), 100 isolates of Klebsiella pneumonia; format: cell-based; conditions: test concentrations 0.03-64 μg/mL
Protocol: as §1

[5] = tested on: Proteus spp. (10 isolates); experiment: MIC by broth microdilution versus Proteus spp. isolates; format: cell-based
Protocol: as §1, with “inhibited. Minimum Inhibitory Concentrations (MICs) versus Proteus spp. and Providencia spp. were determined for compound (I) and comparative compound (III) using the methodology outlined above for the 100 isolates of Escherichia coli and Klebsiella pneumonia.” for “inhibited.”

[6] = tested on: Providencia spp. (10 isolates); experiment: MIC by broth microdilution versus Providencia spp. isolates; format: cell-based
Protocol: as §1, with “inhibited. Minimum Inhibitory Concentrations (MICs) versus Proteus spp. and Providencia spp. were determined for compound (I) and comparative compound (III) using the methodology outlined above for the 100 isolates of Escherichia coli and Klebsiella pneumonia.” for “inhibited.”

[7] = tested on: 44 ligands (including receptors, transporters, ion channels, enzymes and kinases); experiment: In vitro safety pharmacology binding assays (CEREP profile); conditions: 10 μM, 44 ligands tested, radioligand binding
Protocol: In vitro pharmacology binding assays were carried out for compound (I), comparative compound (II) and comparative compound (III) to evaluate the percentage of inhibition against 44 ligands (including receptors, transporters, ion channels, enzymes and kinases) at a concentration of 10 μM of compound (I), comparative compound (II) or comparative compound (III). Compound binding was calculated as a percentage of inhibition of the binding of a radioactively labelled ligand specific for each target. Results showing an inhibition higher than 50% are considered to represent discernible effects of compound (I), comparative compound (II) or comparative compound (III). […] The in vitro pharmacology binding assays for compound (I) and comparative compounds (II) and (III) was carried out separately over different days, and compared in FIGS. 1a, 1b, 1c, and 1d.

E. coli UTI89 = experiment: Proof-of-concept murine urinary tract infection model, IV bolus; format: in vivo; conditions: IV bolus 20 mg/kg TID over 3 days, 96 h
Protocol: Compound (I) and comparative compound (III) were evaluated in proof-of-concept studies in murine models for the treatment of a respiratory infection with Gram-negative bacteria of the order Enterobacterales, a bacteraemia or bloodstream infection with Gram-negative bacteria of the order Enterobacterales, and a urinary tract infection with Gram-negative bacteria of the order Enterobacterales. Each dot, triangle or square indicator represents a single mouse. LOD refers to the limit of detection of the bacteria. […] Each of the proof-of-concept studies was carried out separately. By vehicle is meant pharmaceutically acceptable carrier or excipient. For the proof-of-concept study for the treatment of a urinary tract infection with Enterobacterales, female C3H/HeN mice were infected with E. coli UTI89. Twenty-four hours after infection (‘pre-treatment’ in FIGS. 4a-c), a vehicle (20% hydroxypropyl β cyclodextrin) containing no compound (I) or comparative compound (III), or a vehicle (20% hydroxypropyl β cyclodextrin) containing compound (I) or comparative compound (III), was administered by IV bolus of 20 mg/kg, TID (8 hrs apart), over 3 days.

E. coli UT189 = experiment: Further proof-of-concept murine urinary tract infection model, intravenous infusion; format: in vivo; conditions: 96 h
Protocol: Compound (I) was evaluated in further proof-of-concept studies in murine models for the treatment of a respiratory infection with Gram-negative bacteria of the order Enterobacterales, and a urinary tract infection with Gram-negative bacteria of the order Enterobacterales. Each dot, triangle or square indicator represents a single mouse. LOD refers to the limit of detection of the bacteria. […] Each of the proof-of-concept studies was carried out separately. By vehicle is meant pharmaceutically acceptable excipient or carrier. For the further proof-of-concept study for the treatment of a urinary tract infection with Enterobacterales, female C3H/HeN mice were infected with E. coli UT189. Twenty-four hours after infection (‘pre-treatment’ in FIGS. 6a-c), mice were either treated with a vehicle control (20% hydroxypropyl β cyclodextrin) containing no compound (I), or a vehicle (20% hydroxypropyl β cyclodextrin) containing compound (I), administered by intravenous infusion for 1 hour (QD) with a dose of 20 mg/kg of compound (I). For some mice who received vehicle containing compound (I), an additional 1-hour continuous intravenous infusion was administered 5 hours after the time at which the first administration begun (BID, 5 hrs apart). The once or twice daily administration was continued for three days. For QD, administration took place between 24 to 25 hours, 48 to 49 hours, and 72 to 73 hours after infection, and for BID, administration took place between 24 to 25 hours, 29 to 30 hours, 48 to 49 hours, 53 to 54 hours, 72 to 73 hours and 77 to 78 hours after infection.

[8] = both QD and BID daily administration

MIC Range Escherichia coli (100 isolates) [3] [µg/mL] | MIC Range Klebsiella pneumonia (100 isolates) [4] [µg/mL] | MIC Range Proteus spp. (10 isolates) [5] [µg/mL] | MIC Range Providencia spp. (10 isolates) [6] [µg/mL] | Structure (SMILES) | CFU value in the lung relative to stasis level [1] | CFU value in the blood relative to stasis level ([2]; 9 h) | ligands with inhibition higher than 50% [7] | bacterial burden in the blood at end of study ([2]; 9 h after initial infection) | more efficacious than comparative compound (III) in reducing the CFU in the bladder (E. coli UTI89) [log] | more efficacious than comparative compound (III) in reducing the CFU in the urine (E. coli UTI89) [log] | bacterial burden in the urine at end of study (E. coli UTI89; female C3H/HeN mice) | bacterial burden in the kidney at end of study (E. coli UT189; BID administration) | bacterial burden in the bladder at end of study (E. coli UT189; [8]) | bacterial burden in the urine at end of study (E. coli UT189; [8])
 |  |  |  | Cc1cnccc1-c1[nH]c(N)nc1-c1ccc2c(c1)N(C(=O)CN)CCO2 [Comparative Compound (III), reference compound] | relatively close to the stasis level | on or above the stasis level |  |  |  |  |  |  |  | 
0.12 to 4.00 | 0.25 to 8.00 | 8 to 32 | 0.5 to 16 | Cc1cnccc1-c1[nH]c(N)nc1-c1ccc2c(c1)N(C(=O)C(C)(C)N)CCO2 [Compound (I), 2-amino-1-(6-(2-amino-5-(3-methylpyridin-4-yl)-1H-imidazol-4-yl)-2,3-dihydro-4H-benzo[b][1,4]oxazin-4-yl)-2-methylpropan-1-one] |  |  | only a single ligand | below the limit of detection (LOD) | 3 | 3 | below the limit of detection (LOD) | below the limit of detection (LOD) | below the limit of detection (LOD) | below the limit of detection (LOD)
